The target of series [1] is T1, von Hippel-Lindau disease tumor suppressor/Son of sevenless homolog 1 (Homo sapiens, UniProt Q07889+P40337). Description: Protac activity at VHL/SOS1 in human K562 cells assessed as SOS1 degradation at 10 uM by Western blotting analysis relative to control. It is filed as cell-based. (In general: Immunoblotting shows a protein as a band on a membrane.)
Target sequence in this assay (P40337 whole entry, looked up, one chain of several): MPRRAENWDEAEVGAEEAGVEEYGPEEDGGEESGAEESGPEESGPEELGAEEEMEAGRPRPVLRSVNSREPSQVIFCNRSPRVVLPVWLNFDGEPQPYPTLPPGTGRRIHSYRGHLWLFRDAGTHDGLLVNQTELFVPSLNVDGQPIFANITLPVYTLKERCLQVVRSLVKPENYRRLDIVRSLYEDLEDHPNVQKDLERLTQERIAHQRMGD
In series [2] the target is T1, von Hippel-Lindau disease tumor suppressor/Son of sevenless homolog 1. Nature of the series: Protac activity at VHL/SOS1 in human K562 cells assessed as SOS1 degradation at 1 uM preincubated with MG132 for 2 hrs followed by compound addition and measured after 2 hrs by Western blotting analysis. It is filed as cell-based.
Target sequence in this assay (P40337 whole entry, looked up, one chain of several): as above
The target of series [3] is T2, Son of sevenless homolog 1 (Homo sapiens) (UniProt Q07889).
T2 sequence (whole entry): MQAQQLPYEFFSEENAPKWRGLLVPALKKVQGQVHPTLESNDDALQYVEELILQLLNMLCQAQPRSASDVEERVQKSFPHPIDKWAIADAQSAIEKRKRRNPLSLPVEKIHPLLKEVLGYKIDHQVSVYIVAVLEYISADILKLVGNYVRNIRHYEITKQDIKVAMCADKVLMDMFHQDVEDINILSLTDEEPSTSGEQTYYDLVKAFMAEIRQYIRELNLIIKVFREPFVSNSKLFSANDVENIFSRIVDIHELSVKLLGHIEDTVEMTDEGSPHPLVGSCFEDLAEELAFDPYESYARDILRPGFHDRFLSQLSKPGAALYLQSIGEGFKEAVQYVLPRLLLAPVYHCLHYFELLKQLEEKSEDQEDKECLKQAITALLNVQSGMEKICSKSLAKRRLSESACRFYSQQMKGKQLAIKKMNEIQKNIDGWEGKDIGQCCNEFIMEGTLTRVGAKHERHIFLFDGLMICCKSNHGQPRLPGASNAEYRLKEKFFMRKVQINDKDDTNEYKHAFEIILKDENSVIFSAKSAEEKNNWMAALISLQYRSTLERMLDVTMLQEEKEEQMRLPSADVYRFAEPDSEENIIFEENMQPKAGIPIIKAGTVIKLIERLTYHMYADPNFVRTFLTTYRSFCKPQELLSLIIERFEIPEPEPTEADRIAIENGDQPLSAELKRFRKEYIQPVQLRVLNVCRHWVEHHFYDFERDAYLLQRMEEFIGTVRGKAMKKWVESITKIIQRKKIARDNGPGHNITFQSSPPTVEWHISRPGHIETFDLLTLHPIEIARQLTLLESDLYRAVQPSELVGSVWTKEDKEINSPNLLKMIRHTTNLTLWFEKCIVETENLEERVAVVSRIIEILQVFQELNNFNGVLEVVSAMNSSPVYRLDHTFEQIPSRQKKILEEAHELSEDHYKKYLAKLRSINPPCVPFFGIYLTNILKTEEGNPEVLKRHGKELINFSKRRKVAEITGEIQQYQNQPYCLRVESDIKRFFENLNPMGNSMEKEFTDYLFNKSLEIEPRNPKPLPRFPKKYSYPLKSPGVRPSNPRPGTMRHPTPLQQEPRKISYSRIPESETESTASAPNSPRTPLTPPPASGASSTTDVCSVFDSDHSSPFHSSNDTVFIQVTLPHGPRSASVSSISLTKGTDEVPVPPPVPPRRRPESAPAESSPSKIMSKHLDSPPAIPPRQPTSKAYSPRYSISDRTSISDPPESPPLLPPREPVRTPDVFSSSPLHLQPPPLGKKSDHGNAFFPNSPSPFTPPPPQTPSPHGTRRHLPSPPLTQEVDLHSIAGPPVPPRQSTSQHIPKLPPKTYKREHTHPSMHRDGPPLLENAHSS
Nature of the series: Induction of SOS1 degradation in human MIA PaCa-2 cells at 1 uM after 24 hrs by MS analysis. It is filed as cell-based.

Series [4] addresses T1, von Hippel-Lindau disease tumor suppressor/Son of sevenless homolog 1. Nature of the series: Protac activity at VHL/SOS1 in human K562 cells assessed as SOS1 degradation incubated for 24 hrs by Western blotting analysis. It is filed as cell-based.
Series [5] shares this target. Description: Protac activity at VHL/SOS1 in human MIA PaCa-2 cells assessed as SOS1 degradation incubated for 24 hrs by Western blotting analysis. It is filed as cell-based.
For series [6], the system named is MIA PaCa-2. Description: Antiproliferative activity against human MIA PaCa-2 cells incubated for 72 hrs by CCK8 assay. It is filed as functional, cell-based. To be noted: MIA PaCa-2, 72 h. In general terms: Tetrazolium assays rely on reduction of a dye to a coloured formazan, in cell work by metabolically active cells.
The test system of series [7] is K562. Nature of the series: Effect on total ERK level in human K562 cells at 0.3 to 3 uM incubated for 24 hrs by Western blotting analysis. It is filed as functional, cell-based. To be noted: dose 0.3-3 µM.
Series [8] is described as follows: Toxicity in BALB/c mouse xenografted with human NCI-H358 cells assessed as body weight loss at 30 mg/kg, ip administered once daily for 28 days in presence of 10 mg/kg 4-((S)-4-acryloyl-2-methylpiperazin-1-yl)-6-fluoro-7-(2-fluoro-6-hydroxyphenyl)-1-(2-isopropyl-4-methylpyridin-3-yl)pyrido[2,3-d]pyrimidin-2(1H)-one. It is filed as organism-based. To be noted: in vivo, 672 h, time 28 day.

Series [9] has as its system SW837. Description: Inhibition of ERK phosphorylation in human SW837 cells at 1 uM measured after 24 to 72 hrs in presence of AMG510 by Western blotting analysis. It is filed as cell-based. To be noted: time 24-72 hrs.
In series [10] the target is T1, von Hippel-Lindau disease tumor suppressor/Son of sevenless homolog 1. Nature of the series: Protac activity at VHL/SOS1 in human K562 cells assessed as maximum SOS1 degradation at 0.003 to 10 uM incubated for 24 hrs by Western blotting analysis. To be noted: dose 0.003-10 µM. It is filed as cell-based.
Target sequence in this assay (P40337 whole entry, looked up, one chain of several): as the sequence (P40337 whole entry, looked up, one chain of several) above
In series [11] the test system is NCI-H358. Description: Antitumor activity against human NCI-H358 cells xenografted in BALB/c mouse assessed as tumor growth inhibition at 30 mg/kg, ip administered once daily for 28 days. It is filed as functional. To be noted: NCI-H358, 672 h, time 28 day, read-out: TGI. A general note: A xenograft is tissue or cells of one species grown in another, often human tumour cells in immunodeficient mice.

Series [12] has as its target T1, von Hippel-Lindau disease tumor suppressor/Son of sevenless homolog 1. Description: Protac activity at VHL/SOS1 in human PANC-1 cells assessed as SOS1 degradation at 1 uM by Western blotting analysis relative to control. It is filed as cell-based.
Target sequence in this assay (P40337 whole entry, looked up, one chain of several): as the sequence (P40337 whole entry, looked up, one chain of several) above
The target is the same in series [13]. Description: Protac activity at VHL/SOS1 in human PANC-1 cells assessed as maximum SOS1 degradation at 0.003 to 10 uM incubated for 24 hrs by Western blotting analysis. It is filed as cell-based. To be noted: dose 0.003-10 µM.
Target sequence in this assay (P40337 whole entry, looked up, one chain of several): as the sequence (P40337 whole entry, looked up, one chain of several) above
For series [14], the system named is NCI-H358. Description: Inhibition of colony formation in human NCI-H358 cells at 1 to 9 uM incubated for 10 days by crystal violet staining based assay. It is filed as functional, cell-based. To be noted: dose 1-9 µM, time 10.0 day.
The test system of series [15] is K562. Description: Antiproliferative activity against human K562 cells incubated for 72 hrs by CCK8 assay. To be noted: K562, 72 h. It is filed as functional, cell-based.
The target of series [16] is T1, von Hippel-Lindau disease tumor suppressor/Son of sevenless homolog 1. Description: Protac activity at VHL/SOS1 in human K562 cells assessed as SOS1 degradation at 1 uM by Western blotting analysis relative to control. It is filed as cell-based.
Target sequence in this assay (P40337 whole entry, looked up, one chain of several): as the sequence (P40337 whole entry, looked up, one chain of several) above
Series [17] shares this target. Description: Protac activity at VHL/SOS1 in human MIA PaCa-2 cells assessed as SOS1 degradation at 1 uM preincubated with MG132 for 2 hrs followed by compound addition and measured after 3 hrs by Western blotting analysis. It is filed as cell-based.
The subject of series [18] is K562. Description: Effect on total MEK level in human K562 cells at 0.3 to 3 uM incubated for 24 hrs by Western blotting analysis. It is filed as functional, cell-based. To be noted: dose 0.3-3 µM.
For series [19], the target named is T1, von Hippel-Lindau disease tumor suppressor/Son of sevenless homolog 1. Description: Protac activity at VHL/SOS1 in human PANC-1 cells assessed as SOS1 degradation at 1 uM incubated for 96 hrs by Western blotting analysis. It is filed as cell-based.
Series [20] shares this target. Nature of the series: Protac activity at VHL/SOS1 in human MIA PaCa-2 cells assessed as SOS1 degradation at 1 uM preincubated with MLN4924 for 2 hrs followed by compound addition and measured after 3 hrs by Western blotting analysis. It is filed as cell-based.

This is an account of results in ChEMBL document CHEMBL5528047, “A Potent SOS1 PROTAC Degrader with Synergistic Efficacy in Combination with KRASG12C Inhibitor” (J Med Chem, 2024).

Calls of active or inactive are those of the source. The calls are words filed in the database; no cut-off is given here.

By DC50 is commonly meant the concentration at which degradation of the target reaches its halfway point. A word on the IC50: it is the midpoint of a concentration-inhibition curve. A lower IC50 goes with inhibition by little substance. Usually Emax stands for the greatest response seen or fitted, relative to the assay's reference.

Regarding `COc1cc2nc(C)nc(N[C@H](C)c3cc(N)cc(C(F)(F)F)c3)c2cc1OCCCCC(=O)N[C@H](C(=O)N1C[C@H](O)C[C@H]1C(=O)NCc1ccc(-c2scnc2C)cc1)C(C)(C)C`, the Activity was 93.3% in series [1]; “Dose-Dependent Effect” in series [4]; “Dose-Dependent Effect” in series [5]; “Non-Toxic” in series [8]; 90.9% in series [12]; 89.8% in series [16]. The result in [2], in series [7], in series [17], in series [18] and in series [20] was inactive. Besides, the result in series [3] and in series [19] was Active. Also, the DC50 in series [4] was found to be 0.13 µM; in series [5] it was 0.061 µM. Also, the IC50 is 0.098 µM in series [6] and 0.535 µM in series [15]. Besides, the inhibition entry in series [9] and in series [14] was “Active” each time. The Emax in series [10] and in series [13] was greater than 90% throughout. For the same compound, the inhibition in vivo at 30 mg/kg in series [11] turned out to be 11.4%.
